Measured values reported in US8680113B2, “BMI-1 protein expression modulators” (PTC Therapeutics, Inc., priority 2008, dated 2014).

Tested on: Bmi-1
Assay: Sandwich ELISA Assay (Bmi-1 ELISA in HT-1080 cells)
Format: cell-based, human
Description: Cell Seeding and Compound Treatment (Day 1):
HT-1080 cells were seeded at 8000 cells/well (50 uL) in 96-well tissue culture plates. After the cells become adherent (3-4 hours), 2× diluted stocks of compounds in 50 uL DMEM containing 1% DMSO (final DMSO concentration was 0.5%) were added and the plates were incubated at 37° C. under 5% CO2 for 40-48 hours
ELISA Plate First Antibody Preparation (Day 2):
The First Antibody (Millipore Mouse, monoclonal to mouse Bmi-1, clone F6, catalog #05-637) diluted to 2 ug/mL in PBS was added (100 uL) to each well of a Nunc MaxiSorp 96-well ELISA plate. The plate was covered with a plate seal and allowed to stand overnight.
Cell Lysate Preparation (Day 3):
Fresh 1× Lysis buffer was prepared on the day of the assay as follows: 1 mM EDTA, 150 mM NaCl, 0.5% Triton-X 100, 10 mM NaF, 20 mM B-Glycerophosphate, 1 mM DTT (in PBS, pH 7.2-7.4) and 1×HALT protease inhibitor cocktail (Pierce #78410).
1× Lysis Buffer (40 uL) was added to each well and the plate was shaken for 5-10 minutes on an orbital shaker to allow cell lysis, then Diluent (1% BSA in PBS in 0.5% NP40) (100 uL) was added to each well.
The Bmi-1 standard curve was prepared in Diluent at the following concentrations of protein: 8000, 4000, 2000, 1000, 500, 250, 125, 0 pg/mL The Bmi-1 Recombinant Protein Standard (Novus Biologicals PCGF4 Recombinant Protein (P01), catalog #H00000648-P01) used in the standard curve was stored at −80° C., and on first thaw, diluted to 10 ug/uL in Blocking Buffer (1% BSA in PBS; BSA: Fisher Scientific Catalog #1600-100) before being aliquoted and refrozen at −80° C. Aliquots can be kept at 4° C. and reused after first thaw, but only for 1-2 weeks. The Bmi-1 Recombinant Protein Standard contains a GST-fusion tag and thus will show up on western blots around 70 Kda.
The prepared ELISA plate was washed 3× with Wash Buffer (0.05% Tween-20 in PBS). The final wash was removed from the plate and the plate was blotted dry on paper towels. Blocking Buffer (300 uL) (1% BSA in PBS) was added per well. The plate was covered with a plate seal and incubated at room temperature for 1 hour. The blocked plate was washed 3× with Wash Buffer, the final wash was removed and the plate was blotted dry on paper towels. The previously prepared samples and standards were added (at 100 uL/well) and the plate was covered with a plate seal and incubated at 4° C. overnight.
The prepared ELISA plate was removed from 4° C., incubated at room temperature for 30 minutes, then washed and blotted dry as previously described for Day 3. The Second Antibody (Cell Signaling Rabbit anti-Bmi-1, Cat#2830) diluted to 1:600 in Blocking Buffer was added (100 uL) to each well, except as needed for background control wells. The plate was covered with a plate seal and incubated for 1.5 hrs at room temperature.
The ELISA plate was washed and blotted dry as previously described. The Third Antibody (Cell Signaling HRP conjugated anti-rabbit IgG (CellSignaling, Cat#:7074) diluted to 1:300 in Blocking Buffer was added (100 uL) to each well, except as needed for background control wells. The plate was incubated for 1 hr at room temperature.
The plate was washed and blotted dry as previously described, then prepared TMB substrate (TMB substrate kit, Pierce catalog #34021) (prepared by mixing kit reagents 1:1) (100 uL) was added per well. The plate was incubated for 20-30 minutes at room temperature in the dark, then Stop Solution (2 M sulfuric acid in water) (50 uL) was added per well. The plates were read at OD450 (experimental) and OD570 (reference).

| Structure (SMILES) | IC50 |
| --- | --- |
| Cc1nc2ccc(Cl)cn2c1-c1csc(Nc2ccc(N(C)C)cc2)n1 [Cpd 58, N′-[4-(6-chloro-2-methylimidazo[1,2-a]pyridin-3-yl)-1,3-thiazol-2-yl]-N,N-dimethylbenzene-1,4-diamine] | < 0.5 µM |
| COc1ccc(Nc2nc(-c3c(C)nc4ccc(Cl)cn34)cs2)cc1 [Cpd 59, 4-(6-chloro-2-methylimidazo[1,2-a]pyridin-3-yl)-N-(4-methoxyphenyl)-1,3-thiazol-2-amine] | < 0.5 µM |
| Cc1nc2ccc(Cl)cn2c1-c1csc(Nc2ccc(Cl)cc2)n1 [Cpd 60, 4-(6-chloro-2-methylimidazo[1,2-a]pyridin-3-yl)-N-(4-chlorophenyl)-1,3-thiazol-2-amine] | < 0.5 µM |
| Cc1nc2ccc(Cl)cn2c1-c1csc(Nc2ccc(Br)cc2)n1 [Cpd 61, N-(4-bromophenyl)-4-(6-chloro-2-methylimidazo[1,2-a]pyridin-3-yl)-1,3-thiazol-2-amine] | < 0.5 µM |
| CC(=O)c1ccc(Nc2nc(-c3c(C)nc4ccc(Cl)cn34)cs2)cc1 [Cpd 62, 1-(4-{[4-(6-chloro-2-methylimidazo[1,2-a]pyridin-3-yl)-1,3-thiazol-2-yl]amino}phenyl)ethanone] | < 0.5 µM |
| Cc1ccn2c(-c3csc(Nc4ccc5c(c4)OCO5)n3)c(C)nc2c1 [Cpd 63, N-(1,3-benzodioxol-5-yl)-4-(2,7-dimethylimidazo[1,2-a]pyridin-3-yl)-1,3-thiazol-2-amine] | < 0.5 µM |
| Cc1ccn2c(-c3csc(Nc4ccc(N(C)C)cc4)n3)c(C)nc2c1 [Cpd 64, N′-[4-(2,7-dimethylimidazo[1,2-a]pyridin-3-yl)-1,3-thiazol-2-yl]-N,N-dimethylbenzene-1,4-diamine] | < 0.5 µM |
| Cc1ccn2c(-c3csc(Nc4ccc(Cl)cc4)n3)c(C)nc2c1 [Cpd 65, N-(4-chlorophenyl)-4-(2,7-dimethylimidazo[1,2-a]pyridin-3-yl)-1,3-thiazol-2-amine] | < 0.5 µM |
| COc1ccc(Nc2nc(-c3c(C)nc4cc(C)ccn34)cs2)cc1F [Cpd 66, 4-(2,7-dimethylimidazo[1,2-a]pyridin-3-yl)-N-(3-fluoro-4-methoxyphenyl)-1,3-thiazol-2-amine] | < 0.5 µM |
| COc1ccc(Nc2nc(-c3c(C)nc4cc(C)ccn34)cs2)cc1Cl [Cpd 67, N-(3-chloro-4-methoxyphenyl)-4-(2,7-dimethylimidazo[1,2-a]pyridin-3-yl)-1,3-thiazol-2-amine] | < 0.5 µM |
| Cc1ccn2c(-c3csc(Nc4ccc(Br)cc4)n3)c(C)nc2c1 [Cpd 68, N-(4-bromophenyl)-4-(2,7-dimethylimidazo[1,2-a]pyridin-3-yl)-1,3-thiazol-2-amine] | < 0.5 µM |
| Cc1ccn2c(-c3csc(Nc4ccc(I)cc4)n3)c(C)nc2c1 [Cpd 69, 4-(2,7-dimethylimidazo[1,2-a]pyridin-3-yl)-N-(4-iodophenyl)-1,3-thiazol-2-amine] | < 0.5 µM |
| Cc1ccc2nc(C)c(-c3csc(Nc4ccc(N(C)C)cc4)n3)n2c1 [Cpd 70, N′-[4-(2,6-dimethylimidazo[1,2-a]pyridin-3-yl)-1,3-thiazol-2-yl]-N,N-dimethylbenzene-1,4-diamine] | < 0.5 µM |
| COc1ccc(Nc2nc(-c3c(C)nc4ccc(C)cn34)cs2)cc1 [Cpd 71, 4-(2,6-dimethylimidazo[1,2-a]pyridin-3-yl)-N-(4-methoxyphenyl)-1,3-thiazol-2-amine] | < 0.5 µM |
| Cc1ccc2nc(C)c(-c3csc(Nc4ccc5c(c4)OCO5)n3)n2c1 [Cpd 72, N-(1,3-benzodioxol-5-yl)-4-(2,6-dimethylimidazo[1,2-a]pyridin-3-yl)-1,3-thiazol-2-amine] | < 0.5 µM |
| COc1ccc(Nc2nc(-c3c(C)nc4ccc(C)cn34)cs2)cc1Cl [Cpd 73, N-(3-chloro-4-methoxyphenyl)-4-(2,6-dimethylimidazo[1,2-a]pyridin-3-yl)-1,3-thiazol-2-amine] | < 0.5 µM |
| COCCOc1ccc(Nc2nc(-c3c(C)nc4ccc(C)cn34)cs2)cc1 [Cpd 74, 4-(2,6-dimethylimidazo[1,2-a]pyridin-3-yl)-N-[4-(2-methoxyethoxy)phenyl]-1,3-thiazol-2-amine] | < 0.5 µM |

| Structure (SMILES) | IC50 |
| --- | --- |
| CCN(CC)c1ccc(Nc2nc(-c3c(C)nc4ccc(C)cn34)cs2)cc1 [Cpd 75, N′-[4-(2,6-dimethylimidazo[1,2-a]pyridin-3-yl)-1,3-thiazol-2-yl]-N,N-diethylbenzene-1,4-diamine] | < 0.5 µM |
| Cc1ccc2nc(C)c(-c3csc(Nc4ccc(I)cc4)n3)n2c1 [Cpd 76, 4-(2,6-dimethylimidazo[1,2-a]pyridin-3-yl)-N-(4-iodophenyl)-1,3-thiazol-2-amine] | < 0.5 µM |
| Cc1ccc2nc(C)c(-c3csc(Nc4ccc(Br)cc4)n3)n2c1 [Cpd 77, N-(4-bromophenyl)-4-(2,6-dimethylimidazo[1,2-a]pyridin-3-yl)-1,3-thiazol-2-amine] | < 0.5 µM |
| Cc1ccc2nc(C)c(-c3csc(Nc4ccc(Cl)cc4)n3)n2c1 [Cpd 78, N-(4-chlorophenyl)-4-(2,6-dimethylimidazo[1,2-a]pyridin-3-yl)-1,3-thiazol-2-amine] | < 0.5 µM |
| Ic1ccc(Nc2nc(-c3cnc4ccccn34)cs2)cc1 [Cpd 79, 4-(imidazo[1,2-a]pyridin-3-yl)-N-(4-iodophenyl)-1,3-thiazol-2-amine] | < 0.5 µM |
| Cc1nc2ncccn2c1-c1csc(N(C)c2ccc(Br)cc2)n1 [Cpd 80, N-(4-bromophenyl)-N-methyl-4-(2-methylimidazo[1,2-a]pyrimidin-3-yl)-1,3-thiazol-2-amine] | < 0.5 µM |
| Cc1nc2ccc(Br)cn2c1-c1csc(Nc2ccc(N(C)C)cc2)n1 [Cpd 81, N′-[4-(6-bromo-2-methylimidazo[1,2-a]pyridin-3-yl)-1,3-thiazol-2-yl]-N,N-dimethylbenzene-1,4-diamine] | < 0.5 µM |
| Cc1nc2ccc(Br)cn2c1-c1csc(Nc2ccc3c(c2)OCO3)n1 [Cpd 82, N-(1,3-benzodioxol-5-yl)-4-(6-bromo-2-methylimidazo[1,2-a]pyridin-3-yl)-1,3-thiazol-2-amine] | < 0.5 µM |
| Ic1ccc(Nc2nc(-c3cnc4ncccn34)cs2)cc1 [Cpd 83, 4-(imidazo[1,2-a]pyrimidin-3-yl)-N-(4-iodophenyl)-1,3-thiazol-2-amine] | 0.5 to 1 µM |
| COc1ccc(Nc2nc(-c3c(C)nc4ncccn34)cs2)cc1OC [Cpd 84, N-(3,4-dimethoxyphenyl)-4-(2-methylimidazo[1,2-a]pyrimidin-3-yl)-1,3-thiazol-2-amine] | < 0.5 µM |
| Cc1ccc(Nc2nc(-c3c(C)nc4ncccn34)cs2)cc1 [Cpd 85, 4-(2-methylimidazo[1,2-a]pyrimidin-3-yl)-N-(4-methylphenyl)-1,3-thiazol-2-amine] | < 0.5 µM |
| CCc1ccc(Nc2nc(-c3c(C)nc4ncccn34)cs2)cc1 [Cpd 86, N-(4-ethylphenyl)-4-(2-methylimidazo[1,2-a]pyrimidin-3-yl)-1,3-thiazol-2-amine] | < 0.5 µM |
| Cc1nc2ncccn2c1-c1csc(Nc2ccc(C(C)C)cc2)n1 [Cpd 87, 4-(2-methylimidazo[1,2-a]pyrimidin-3-yl)-N-[4-(propan-2-yl)phenyl]-1,3-thiazol-2-amine] | < 0.5 µM |
| CCOc1ccc(Nc2nc(-c3c(C)nc4ccc(Cl)cn34)cs2)cc1 [Cpd 88, 4-(6-chloro-2-methylimidazo[1,2-a]pyridin-3-yl)-N-(4-ethoxyphenyl)-1,3-thiazol-2-amine] | < 0.5 µM |
| Cc1ccc(Nc2nc(-c3c(C)nc4ccc(Cl)cn34)cs2)cc1 [Cpd 89, 4-(6-chloro-2-methylimidazo[1,2-a]pyridin-3-yl)-N-(4-methylphenyl)-1,3-thiazol-2-amine] | < 0.5 µM |
| CCc1ccc(Nc2nc(-c3c(C)nc4ccc(Cl)cn34)cs2)cc1 [Cpd 90, 4-(6-chloro-2-methylimidazo[1,2-a]pyridin-3-yl)-N-(4-ethylphenyl)-1,3-thiazol-2-amine] | < 0.5 µM |
